Measured values: article PMC6934184, “Selective DNA-PKcs inhibition extends the therapeutic index of localized radiotherapy and chemotherapy” (The Journal of Clinical Investigation, 2019)

Target: T1, CDK2/cyclin E1 (Homo sapiens, UniProt P24941)
T1 construct: purchased Thermo Fisher Scientific (Life Technologies) SelectScreen
Experiment: SelectScreen LanthaScreen
Format: binding
Conditions: 1 µM
Method in brief: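 SelectScreen broad panel; activity (Z'LYTE, Adapta) plus binding formats. ATP: Km app for CSF1R Z'LYTE; 10 for CAMK1 Adapta. Readout = % per kinase.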

In the case of CN(C(=O)CN1CCOCC1)c1ccc2sc3c(-c4cccc5c(=O)cc(N6CC7CCC(C6)O7)oc45)cccc3c2c1 [NU5455], the “% displacement” value is reported as 2.7%.
